Reference: patent US20250129062A1, “AMORPHOUS SUBSTANCES, CRYSTALS, PHARMACEUTICAL COMPOSITIONS, PREPARATION METHODS AND USES OF THIOHYDANTOIN COMPOUND OR PHARMACEUTICALLY ACCEPTABLE SALT THEREOF” (SUZHOU KINTOR PHARMACEUTICALS, INC., priority 2021, published 2025)
Where “and” joins values, the source holds several entries; their conditions need not be identical. Equal values may be shown once. Read-outs that look alike come from different tables or passages of the source.

Legend:
[1] = Distribution of compound in sebaceous glands and blood of golden hamsters after single skin application; type: in vivo; conditions: for Concentration in sebaceous glands / concentration at 8 h: 8 h
Method: 6 male golden hamsters were selected for the experiment, and randomly divided evenly into 2 groups, with three golden hamsters per group. All animals were fasted overnight before administration, and were administered via a route of single application. Sampling was performed at specific time points after administration. Specific information on animal grouping, administration, sampling, etc. were detailed in Table 6.
The amorphous substance of the compound of formula I was weighed and placed in a 50 mL centrifugal tube. A mixed solvent (consisting of 75% v/v ethanol, 15% v/v glyceryl tri (2-ethylhexanoate) and 10% v/v glycerin) was added. After vortexing, heating was performed at 60° C. until the amorphous substance of the compound of formula I was completely dissolved. The amorphous substances of the compound of formula I in the two groups were prepared at 30 mg/mL and 100 mg/mL, respectively, and stored at room temperature in the dark.
After administration, blood was collected into blood collection tubes containing a heparin sodium anticoagulant at corresponding time points. Immediately after collection of whole blood, the blood collection tubes were gently shaken and placed on ice, and then centrifuged (4° C., 4000 rpm, 10 min). The supernatant plasma samples (plasma volume ≥100 μL) were collected, and stored in a refrigerator at about −80° C. The plasma samples were collected for 8 h for analysis.

[2] = Solubility of amorphous substance in solvent systems (supersaturated solution, oscillated 24 h at room temperature, HPLC); type: physicochemical; conditions: dehydrated alcohol 50%: water 50% (w/w), aqueous with cosolvent or surfactant or cyclodextrin, thermodynamic from solid, Dehydrated alcohol 50%: water 50% (w/w); read-out: 24 h solubility
Method: The amorphous substance of the compound of formula I was prepared into supersaturated solutions with different solvents, and oscillated under a room temperature condition (a constant temperature). After oscillating for 24 h, sampling was performed, and the content of the sample was detected by HPLC under condition 1.
Condition 1: • Chromatographic column: C18 (150 mm×4.6 mm×3.5 μm); • Mobile phase: binary mobile phase system, mobile phase A was 0.1% formic acid in water, mobile phase B was acetonitrile; • Elution time: 68 min; • Elution mode: gradient elution (in the gradient elution process, mobile phase A had the maximum volume percentage of 95% and the minimum volume percentage of 10%); • Detection wavelength: 270 nm.

Question: For `Cc1ncsc1-c1ccc(CNC(=O)[C@@H]2C[C@@H](O)CN2C(=O)[C@@H](NC(=O)COCCCCOc2ccc(-c3ccc(N4C(=S)N(c5ccc(C#N)c(C(F)(F)F)c5F)C(=O)C4(C)C)cn3)cc2)C(C)(C)C)cc1` [compound of formula I], which “Concentration in sebaceous glands” value ([1]; Left sebaceous gland, dose 1.2 mg, individual animals No. 1-3) is on record?
Answer: The value was 10900 ng/mL and 20400 ng/mL and 7010 ng/mL.

Question: And the “Concentration in sebaceous glands” value ([1]; Left sebaceous gland, dose 4 mg, individual animals No. 4-6)?
Answer: Its value is 57100 ng/mL and 15000 ng/mL and 8340 ng/mL.

Question: What about the “Concentration in sebaceous glands” value ([1]; Right sebaceous gland, dose 1.2 mg, individual animals No. 1-3) of the same compound?
Answer: The value was 17900 ng/mL and 15700 ng/mL.

Question: What about the “Concentration in sebaceous glands” value ([1]; Right sebaceous gland, dose 4 mg, individual animals No. 4-6) of the same compound?
Answer: The value was 19900 ng/mL and 18400 ng/mL.

Question: What about the “distribution between sebaceous glands and blood after skin application” value ([1]; golden hamsters, administration via skin application) of the same compound?
Answer: The value was “can enter sebaceous glands, but cannot enter blood”.

Question: And the “maximum blood drug concentration” value ([1]; group 2, dose 4 mg, over sampling time points 0.25, 0.5, 1, 2, 4, 6 and 8 h)?
Answer: Its value is 10.6 ng/mL.

Question: What about the “Concentration of compound of formula I in plasma” value ([1]; male golden hamsters, skin application 4 mg, 2 h, individual animals No. 4, 5, 6) of the same compound?
Answer: Its value is 10.6 ng/mL.

Question: What about the “Concentration of compound of formula I in plasma” value ([1]; male golden hamsters, skin application 4 mg, 4 h, individual animals No. 4, 5, 6) of the same compound?
Answer: Its value is 4.42 ng/mL.

Question: And the concentration at 0.5 h ([1]; male, hamster, plasma, topical, 4 mg, male golden hamsters, skin application 4 mg, 0.5 h, individual animals No. 4, 5, 6, read-out: Concentration of compound of formula I in plasma)?
Answer: Its concentration at 0.5 h is under 0 ng/mL.

Question: What about the concentration at 1 h ([1]; male, hamster, plasma, topical, 4 mg, male golden hamsters, skin application 4 mg, 1 h, individual animals No. 4, 5, 6, read-out: Concentration of compound of formula I in plasma) of the same compound?
Answer: Its concentration at 1 h is under 0 ng/mL.

Question: And the concentration at 2 h ([1]; male, hamster, plasma, topical, 4 mg, male golden hamsters, skin application 4 mg, 2 h, read-out: Concentration of compound of formula I in plasma, Mean)?
Answer: Its concentration at 2 h is 11 ng/mL.

Question: And the concentration at 4 h ([1]; male, hamster, plasma, topical, 4 mg, male golden hamsters, skin application 4 mg, 4 h, read-out: Concentration of compound of formula I in plasma, Mean)?
Answer: The concentration at 4 h was 4 ng/mL.

Question: And the concentration at 8 h ([1]; male, hamster, right sebaceous gland, topical, 1.2 mg, Right sebaceous gland, dose 1.2 mg, individual animals No. 1-3, read-out: Concentration in sebaceous glands)?
Answer: Its concentration at 8 h is 9170 ng/mL.

Question: And the concentration at 8 h ([1]; male, hamster, right sebaceous gland, topical, 4 mg, Right sebaceous gland, dose 4 mg, individual animals No. 4-6, read-out: Concentration in sebaceous glands)?
Answer: The concentration at 8 h was 26600 ng/mL.

Question: And the concentration at 8 h ([1]; male, hamster, sebaceous glands (left and right), topical, 1.2 mg, left and right sebaceous glands, dose 1.2 mg, read-out: Concentration mean in sebaceous glands)?
Answer: Its concentration at 8 h is 13500 ng/mL.

Question: And the concentration at 8 h ([1]; male, hamster, sebaceous glands (left and right), topical, 4 mg, left and right sebaceous glands, dose 4 mg, read-out: Concentration mean in sebaceous glands)?
Answer: Its concentration at 8 h is 24200 ng/mL.

Question: What about the solubility at 24 h [2] of the same compound?
Answer: Its solubility at 24 h is 6440 µg/mL.
